Source: ChEMBL document CHEMBL6134870 (J Med Chem, 2025)

Tests used:
[1] = human, serum, 2 h
[2] = Cytotoxicity against BoNT/A treated human iPSC cells assessed as cell rounding at 100 uM incubated for 7.5 hrs by Western blot analysis; assay type: toxicity, cell-based
[3] = molecular target: Matrix metalloproteinase-14 (Homo sapiens, UniProt P50281); test: Inhibition of MMP-14 (unknown origin) at 25 uM; assay type: toxicity
[4] = molecular target: T1, Matrix metalloproteinase-19 (Homo sapiens, UniProt Q99542); test: Inhibition of MMP-19 (unknown origin) at 25 uM; assay type: toxicity
T1 sequence (Q99542 whole entry): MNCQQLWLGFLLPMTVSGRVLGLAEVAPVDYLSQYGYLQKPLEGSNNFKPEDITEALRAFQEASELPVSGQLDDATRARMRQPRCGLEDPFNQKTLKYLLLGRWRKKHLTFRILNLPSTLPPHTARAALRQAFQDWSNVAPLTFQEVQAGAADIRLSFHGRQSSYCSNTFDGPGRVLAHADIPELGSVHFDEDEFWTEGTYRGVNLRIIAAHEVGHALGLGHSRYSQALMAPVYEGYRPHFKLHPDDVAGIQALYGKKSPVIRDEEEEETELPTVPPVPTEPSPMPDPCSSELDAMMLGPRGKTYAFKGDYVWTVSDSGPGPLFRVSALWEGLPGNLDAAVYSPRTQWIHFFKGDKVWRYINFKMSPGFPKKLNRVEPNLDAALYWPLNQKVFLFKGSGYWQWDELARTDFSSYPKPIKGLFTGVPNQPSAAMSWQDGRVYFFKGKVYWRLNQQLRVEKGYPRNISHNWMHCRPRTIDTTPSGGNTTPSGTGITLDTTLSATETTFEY

HEK293 = test: Cytotoxicity against HEK293 cells assessed as reduction in cell viability at 2 to 128 uM incubated for 24 hrs by MTS assay; assay type: toxicity, cell-based; conditions: human, hek293, 24 h, dose 2-128 µM

With `C=C=CC(=O)NCCCc1ccn2c(=O)cc(CNCc3ccc(-c4ccccc4)cc3)nc2c1O` the t1/2 [1] was 6.4 h.

With `FC(F)(F)c1ccc(-c2ccc3c(c2)CC(=S)N3)c(C2CC2)c1` the Activity [2] was “Toxic”.

In the case of `FC(F)(F)c1ccc(-c2cc3c(cc2Cl)NC(=S)C3)c(C(F)(F)F)c1`, the Activity [3] is reported as “Active” and the Activity [4] is reported as “Active”.

In the case of `FC(F)(F)c1ccc(-c2ccc3c(c2)CC(=S)N3)c(C(F)(F)F)c1`, the Activity (HEK293) is reported as “Non-toxic” and the Activity [2] is reported as “Toxic”.

For `Cn1c(SC(=O)C(C)(C)C)cc2cc(C(=O)Nc3ccccc3)ccc21`, the t1/2 [1] was 1.2 h.
